PubChem BioAssay (NCI)
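Cultured in 96-well plates, cells were exposed to test compound for 48 hours across five concentrations. The concentration for 50% growth inhibition is given as GI50. TGI: total growth inhibition.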

Assays:
Assay in all cases: DTP human tumour cell line panel, 48 h
SK-MEL-5 melanoma = test system: SK-MEL-5 melanoma
NCI/ADR-RES ovarian = test system: NCI/ADR-RES ovarian
SF-539 CNS = test system: SF-539 CNS
MALME-3M melanoma = test system: MALME-3M melanoma
DU-145 prostate = test system: DU-145 prostate
OVCAR-4 ovarian = test system: OVCAR-4 ovarian
ACHN renal = test system: ACHN renal
EKVX NSCLC = test system: EKVX NSCLC
M14 melanoma = test system: M14 melanoma

| Structure (SMILES) | TGI (SK-MEL-5 melanoma) [µM] | TGI (NCI/ADR-RES ovarian) [µM] | TGI (SF-539 CNS) [µM] | TGI (MALME-3M melanoma) [µM] | TGI (DU-145 prostate) [µM] | TGI (OVCAR-4 ovarian) [µM] | TGI (ACHN renal) [µM] | TGI (EKVX NSCLC) [µM] | TGI (M14 melanoma) [µM] | GI50 (SK-MEL-5 melanoma) [nM] | GI50 (NCI/ADR-RES ovarian) [nM] | GI50 (SF-539 CNS) [nM] | GI50 (MALME-3M melanoma) [nM] | GI50 (DU-145 prostate) [nM] | GI50 (OVCAR-4 ovarian) [µM] | GI50 (ACHN renal) [nM] | GI50 (EKVX NSCLC) [nM] | GI50 (M14 melanoma) [nM] |
| --- | --- | --- | --- | --- | --- | --- | --- | --- | --- | --- | --- | --- | --- | --- | --- | --- | --- | --- |
| O=C1C=C(N2CCN(c3ccccn3)CC2)C(=O)c2c(O)ccc(O)c21 | 4.5 | 11.5 | 22.3 | 1.63 | > 55.5 | 28.2 | > 56.2 | > 65.7 | > 48.2 | – | – | – | – | – | – | – | – | – |
| C=CCOC(=O)CCCCCCCCCCCCCCCOC(=O)C1=C(CCC[C@@H](C)O[Si](C)(C)C(C)(C)C)NC(=O)N2[C@H](CC3(CC/C=C\[C@H](CC)O[Si](C(C)C)(C(C)C)C(C)C)OCCO3)CC[C@H]12 | > 100 | > 100 | > 100 | > 100 | > 100 | > 100 | > 100 | > 100 | > 100 | – | – | – | – | – | – | – | – | – |
| O=CNNC(=O)Nc1ccc(Cl)cc1 | > 100 | > 100 | > 100 | > 100 | > 100 | > 100 | > 100 | > 100 | > 100 | – | – | – | – | – | – | – | – | – |
| CC12CC(C/C1=N/O)C(C)(C)C2 (stereo not drawn) | > 100 | – | > 100 | > 100 | > 100 | > 100 | > 100 | > 100 | > 100 | – | – | – | – | – | – | – | – | – |
| O=C1CSC2(CC(/C=C/c3ccccc3Br)=NN2c2cccc(S(=O)(=O)O)c2)N1c1nc2ccccc2s1 (stereo not drawn) | > 100 | > 100 | > 100 | > 100 | > 100 | > 100 | > 100 | > 100 | > 100 | – | – | – | – | – | – | – | – | – |
| O=C(c1ccco1)C1CC(c2ccc3ccccc3c2O)=NN1c1ccc([N+](=O)[O-])cc1[N+](=O)[O-] (stereo not drawn) | – | 75.4 | > 100 | > 100 | > 100 | > 100 | > 100 | – | > 100 | – | – | – | – | – | – | – | – | – |
| CC(C)C1CC(CO)(CNc2cc(Cl)nc(N)n2)C1 (stereo not drawn) | 40.8 | > 100 | > 100 | > 100 | > 100 | > 100 | > 100 | > 100 | – | – | – | – | – | – | – | – | – | – |
| CC(C)(C)c1c(C(C)(C)C)c(=O)c1=O | > 100 | > 100 | > 100 | > 100 | > 100 | > 100 | > 100 | > 100 | > 100 | – | – | – | – | – | – | – | – | – |
| [N-]=[N+]=C(C(=O)C(=[N+]=[N-])C(=O)c1ccccc1)C(=O)c1ccccc1 | > 100 | > 100 | > 100 | > 100 | > 100 | – | > 100 | > 100 | > 100 | – | – | – | – | – | – | – | – | – |
| O=C(CSc1nc2ccc(I)cc2c(=O)n1Cc1ccccc1)NN1C(=O)CCC1=O | > 100 | > 100 | > 100 | – | > 100 | 75.9 | 34.6 | > 100 | > 100 | – | – | – | – | – | – | – | – | – |
| COC(=O)C(C(=O)C(=O)NC1Nc2ccc(C)cc2S1)c1nc2ccc(Cl)cc2[nH]c1=O (stereo not drawn) | > 100 | > 100 | > 100 | > 100 | – | > 100 | > 100 | > 100 | – | – | – | – | – | – | – | – | – | – |
| Cc1cn([C@H]2[C@@H](CO)C[C@H]2O)c(=O)[nH]c1=O | > 100 | > 100 | > 100 | > 100 | > 100 | > 100 | > 100 | > 100 | – | – | – | – | – | – | – | – | – | – |
| CCOC(=O)c1nc2ccccc2nc1NCc1ccc(Cl)cc1Cl | > 100 | > 100 | > 100 | > 100 | – | > 100 | > 100 | > 100 | > 100 | – | – | – | – | – | – | – | – | – |
| N#CCCC1(CCC#N)CCCCCCC(CCC#N)(CCC#N)C(O)C1O (stereo not drawn) | > 100 | > 100 | > 100 | > 100 | > 100 | > 100 | > 100 | – | > 100 | – | – | – | – | – | – | – | – | – |
| C/C(=N\Nc1ccccc1)C(CN(C)C)C(c1ccccc1)c1c(O)c2ccccc2oc1=O (stereo not drawn) | > 100 | > 100 | > 100 | > 100 | > 100 | > 100 | > 100 | > 100 | > 100 | – | – | – | – | – | – | – | – | – |
| C=C1CC(Cn2cc(Br)c(=O)[nH]c2=O)(c2ccc(-c3ccccc3)cc2)OC1=O (stereo not drawn) | 2.55 | 4.82 | 3.92 | 3.06 | 4.59 | 4.64 | 3.24 | 7.42 | 3.12 | – | – | – | – | – | – | – | – | – |
| COc1cc(-n2cc(-c3cc(O)c(C/C=C(\C)CCC=C(C)C)c(O)c3)nn2)cc2c1O[C@]1(C)CC[C@@H](O)C(C)(C)[C@H]1C2 | 5.77 | 68.6 | 1.76 | 8.4 | 26.3 | 41.6 | 26.6 | 44.1 | 31 | 1330 | 3510 | 66.4 | 1380 | 2300 | 3.13 | 1790 | 2280 | 787 |
| COc1ccc(C2=C(OC(=O)N(C)C)c3cccn3-c3cc(Cl)ccc3S2)cc1 | > 10 | – | – | > 10 | > 10 | > 10 | – | > 10 | > 10 | – | – | – | – | – | – | – | – | – |
| O=C1OI(C#Cc2ccccc2)c2ccccc21 | 6.77 | > 100 | 5.58 | 5.64 | 23.4 | 12.3 | 5.42 | 9.67 | > 49.8 | – | – | – | – | – | – | – | – | – |
| CC1=C2C(=O)c3ccccc3C(=O)[C@H]2C[C@@H](N2CCCCCC2=O)O1 | 29.6 | 49.8 | 33.7 | 25.5 | 32.3 | 32.1 | 51.7 | 57 | 28.8 | – | – | – | – | – | – | – | – | – |
| CCCCCCOc1ccc(C(=N)N(CCCC)CCCC)c2ccccc12 | 2.85 | 2.79 | – | – | 2.86 | – | – | – | – | 1520 | 1430 | – | – | 1490 | – | – | – | – |
| c1ccc([P+](c2ccccc2)(c2ccccc2)c2ccc([P+](c3ccccc3)(c3ccccc3)c3ccccc3)cc2)cc1 | > 100 | > 100 | 81.5 | > 100 | > 100 | – | > 100 | – | > 100 | – | – | – | – | – | – | – | – | – |
